Laboratory results taken from PubChem BioAssay (NCI).
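Interpolation was linear, between the two tested concentrations surrounding the appropriate level; five concentrations were tested over 48 hours in 96-well plates. GI50 = concentration required for 50% inhibition of growth. At the TGI there is no net growth.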

How the values were obtained:
Test in all cases: NCI-60 cell line screen, 48 h
[1] = system: HS 578T breast
[2] = system: ACHN renal
[3] = system: NCI-H522 lung
[4] = system: EKVX NSCLC
[5] = system: HCT-15 colon
[6] = system: MDA-MB-231 breast
[7] = system: TK-10 renal
[8] = system: MALME-3M melanoma
[9] = system: SK-OV-3 ovarian
[10] = system: CAKI-1 renal
[11] = system: CCRF-CEM leukemia
[12] = system: K-562 leukemia
[13] = system: HCC-2998 colon
[14] = system: LOX IMVI melanoma
[15] = system: SK-MEL-5 melanoma
[16] = system: UACC-257 melanoma
[17] = system: SNB-75 CNS
[18] = system: HL-60(TB) leukemia
[19] = system: HCT-116 colon
[20] = system: SW-620 colon
[21] = system: IGROV1 ovarian
[22] = system: UACC-62 melanoma
[23] = system: OVCAR-4 ovarian
[24] = system: OVCAR-5 ovarian
[25] = system: A549 NSCLC
[26] = system: UO-31 renal
[27] = system: MDA-MB-435
[28] = system: MCF7 breast
[29] = system: HOP-62 NSCLC
[30] = system: RPMI-8226 leukemia
[31] = system: SF-295 CNS
[32] = system: DU-145 prostate
[33] = system: T-47D breast
[34] = system: SNB-19 CNS
[35] = system: 786-0 renal
[36] = system: NCI-H23 lung
[37] = system: COLO 205 colon
[38] = system: SK-MEL-28 melanoma
[39] = system: MOLT-4 leukemia
[40] = system: NCI-H460 lung
[41] = system: RXF 393 renal
[42] = system: NCI-H226 lung
[43] = system: HT29 colon
[44] = system: BT-549 breast
[45] = system: U251 CNS
[46] = system: PC-3 prostate
[47] = system: SF-268 CNS
[48] = system: A498 renal
[49] = system: NCI/ADR-RES ovarian
[50] = system: SN12C renal
[51] = system: OVCAR-8 ovarian
[52] = system: OVCAR-3 ovarian
[53] = system: M14 melanoma
[54] = system: KM12 colon
[55] = system: HOP-92 NSCLC

Compound: CN(C)Cc1c[nH]c2c1C(=O)c1c(c(O)c3ccccc3c1O)C2=O
- GI50 [1]: 10.9 µM
- TGI [1]: 26.7 µM
- GI50 [2]: 7.08 µM
- TGI [2]: 20.1 µM
- GI50 [3]: 12.6 µM
- TGI [3]: 35.4 µM
- GI50 [4]: 0.603 µM
- TGI [4]: 5.28 µM
- GI50 [5]: 5.02 µM
- TGI [5]: 16.2 µM
- GI50 [6]: 11.6 µM
- TGI [6]: 25 µM
- GI50 [7]: 5.08 µM
- TGI [7]: 19.7 µM
- GI50 [8]: 9.61 µM
- TGI [8]: 23.3 µM
- GI50 [9]: 52 µM
- TGI [9]: > 100 µM
- GI50 [10]: 10.8 µM
- TGI [10]: 23.9 µM
- GI50 [11]: 3.14 µM
- TGI [11]: 20.7 µM
- GI50 [12]: 2.24 µM
- TGI [12]: > 100 µM
- GI50 [13]: 6.61 µM
- TGI [13]: 21.9 µM
- GI50 [14]: 6.32 µM
- TGI [14]: 19.5 µM
- GI50 [15]: 11.2 µM
- TGI [15]: 23.3 µM
- GI50 [16]: 19.7 µM
- TGI [16]: 35.4 µM
- GI50 [17]: 20 µM
- TGI [17]: 53.5 µM
- GI50 [18]: 17.2 µM
- TGI [18]: 75.7 µM
- GI50 [19]: 8.17 µM
- TGI [19]: 34.8 µM
- GI50 [20]: 3.37 µM
- TGI [20]: 14.6 µM
- GI50 [21]: 3.34 µM
- TGI [21]: 37.2 µM
- GI50 [22]: 16.3 µM
- TGI [22]: 30.1 µM
- GI50 [23]: 20.1 µM
- TGI [23]: 42.6 µM
- GI50 [24]: 14.3 µM
- TGI [24]: 27.3 µM
- GI50 [25]: 7.59 µM
- TGI [25]: 20.6 µM
- GI50 [26]: 8.6 µM
- TGI [26]: 29.5 µM
- GI50 [27]: 10.6 µM
- TGI [27]: 23 µM
- GI50 [28]: 3.22 µM
- TGI [28]: 15.5 µM
- GI50 [29]: 10.7 µM
- TGI [29]: 27.9 µM
- GI50 [30]: 4.16 µM
- TGI [30]: 22.2 µM
- GI50 [31]: 3.22 µM
- TGI [31]: 17.1 µM
- GI50 [32]: 0.923 µM
- TGI [32]: 11.5 µM
- GI50 [33]: 11.4 µM
- TGI [33]: > 100 µM
- GI50 [34]: 8.94 µM
- TGI [34]: 43.4 µM
- GI50 [35]: 10.5 µM
- TGI [35]: 33.6 µM
- GI50 [36]: 9.34 µM
- TGI [36]: 24.9 µM
- GI50 [37]: 0.0386 µM
- TGI [37]: > 100 µM
- GI50 [38]: 27.4 µM
- TGI [38]: 58 µM
- GI50 [39]: 3.42 µM
- TGI [39]: > 100 µM
- GI50 [40]: 3.54 µM
- TGI [40]: 16 µM
- GI50 [41]: 9.48 µM
- TGI [41]: 25.5 µM
- GI50 [42]: 17 µM
- TGI [42]: 33.3 µM
- GI50 [43]: 16.7 µM
- TGI [43]: > 100 µM
- GI50 [44]: 13.7 µM
- TGI [44]: 26.5 µM
- GI50 [45]: 5.56 µM
- TGI [45]: 18.7 µM
- GI50 [46]: 5.71 µM
- TGI [46]: 22.2 µM
- GI50 [47]: 8.24 µM
- TGI [47]: 23.9 µM
- GI50 [48]: 12.1 µM
- TGI [48]: 25.3 µM
- GI50 [49]: 4.29 µM
- TGI [49]: 22.8 µM
- GI50 [50]: 5.62 µM
- TGI [50]: 19.1 µM
- GI50 [51]: 8.56 µM
- TGI [51]: 29.8 µM
- GI50 [52]: 2.44 µM
- TGI [52]: 13.9 µM
- GI50 [53]: 17.2 µM
- TGI [53]: 40.4 µM
- GI50 [54]: 4.66 µM
- TGI [54]: 20.9 µM
- GI50 [55]: 13.6 µM
- TGI [55]: 31.7 µM
